Measurements taken from US12065622B2, “Ammonium-based ionic liquid and its use as a lubricant additive” (TOTALENERGIES ONETECH, priority 2020, dated 2024).

Experiment: Base number (TBN) according to ASTM D2896
Format: physicochemical
Details: neat ionic liquid
Method: An oil's neutralization capacity is measured by its BN or Base Number, characterized by its basicity. It is measured according to standard ASTM D-2896 and is expressed as an equivalent in milligrams of potash per gram of oil (also called “mg of KOH/g” or “BN point”). The BN is a standard criterion making it possible to adjust the basicity of the cylinder oils to the sulphur content of the fuel oil used, in order to be able to neutralize all of the sulphur contained in the fuel, and capable of being converted to sulphuric acid by combustion and hydrolysis.

Q: For “Tri-n-Octylmethylammonium 2-Ethylhexanoate [IL1]”, which base number is on record?
A: 114 mg KOH/g
